Laboratory results published in ChEMBL document CHEMBL1275440, “In vitro activity of telavancin against resistant gram-positive bacteria” (2008).
In brackets after ≈: the same amount, converted by molar mass. Activity calls are given as the source filed them. The calls are words filed in the database; no cut-off is given here.

Columns and labels:
[1] = test system: Streptococcus pyogenes; test: Antibacterial activity against Streptococcus pyogenes MED 2040 by broth microdilution method; assay type: functional
[2] = test system: Streptococcus agalactiae; test: Antibacterial activity against Streptococcus agalactiae MED 2038 by broth microdilution method; assay type: functional
[3] = test system: Staphylococcus epidermidis; test: Antibacterial activity against methicillin resistant Staphylococcus epidermidis ATCC 35984 by broth microdilution method; assay type: functional
[4] = test system: Enterococcus faecium; test: Antibacterial activity against vancomycin resistant Enterococcus faecium VanB clinical isolate assessed as susceptibility level by broth microdilution method; assay type: functional
[5] = test system: Enterococcus faecium; test: Antibacterial activity against vancomycin resistant Enterococcus faecium VanA clinical isolate assessed as susceptibility level by broth microdilution method; assay type: functional
[6] = test system: Enterococcus faecalis; test: Antibacterial activity against vancomycin resistant Enterococcus faecalis VanB clinical isolate assessed as susceptibility level by broth microdilution method; assay type: functional
[7] = test system: Streptococcus viridans; test: Antibacterial activity against Streptococcus viridans clinical isolate assessed as susceptibility level by broth microdilution method; assay type: functional
[8] = test system: Streptococcus constellatus; test: Antibacterial activity against Streptococcus constellatus clinical isolate assessed as susceptibility level by broth microdilution method; assay type: functional
[9] = test system: Streptococcus oralis; test: Antibacterial activity against Streptococcus oralis clinical isolate assessed as susceptibility level by broth microdilution method; assay type: functional
[10] = test system: Streptococcus intermedius; test: Antibacterial activity against Streptococcus intermedius clinical isolate assessed as susceptibility level by broth microdilution method; assay type: functional
[11] = test system: Streptococcus mitis; test: Antibacterial activity against Streptococcus mitis clinical isolate assessed as susceptibility level by broth microdilution method; assay type: functional
[12] = test system: Streptococcus agalactiae; test: Antibacterial activity against Streptococcus agalactiae group B clinical isolate assessed as susceptibility level by broth microdilution method; assay type: functional
[13] = test system: Streptococcus pyogenes; test: Antibacterial activity against Streptococcus pyogenes group A clinical isolate assessed as susceptibility level by broth microdilution method; assay type: functional
[14] = test system: Streptococcus pneumoniae; test: Antibacterial activity against penicillin intermediate Streptococcus pneumoniae clinical isolate assessed as susceptibility level by broth microdilution method; assay type: functional
[15] = test system: Staphylococcus saprophyticus; test: Antibacterial activity against methicillin resistant coagulase-negative Staphylococcus saprophyticus clinical isolate assessed as susceptibility level by broth microdilution method; assay type: functional
[16] = Antibacterial activity against methicillin resistant coagulase-negative Staphylococcus hominis subsp. novobiosepticus clinical isolate assessed as susceptibility level by broth microdilution method; assay type: functional
[17] = test system: Staphylococcus haemolyticus; test: Antibacterial activity against methicillin resistant coagulase-negative Staphylococcus haemolyticus clinical isolate assessed as susceptibility level by broth microdilution method; assay type: functional
[18] = test system: Staphylococcus capitis; test: Antibacterial activity against methicillin resistant coagulase-negative Staphylococcus capitis clinical isolate assessed as susceptibility level by broth microdilution method; assay type: functional
[19] = test system: Staphylococcus auricularis; test: Antibacterial activity against methicillin resistant coagulase-negative Staphylococcus auricularis clinical isolate assessed as susceptibility level by broth microdilution method; assay type: functional
[20] = test system: Staphylococcus epidermidis; test: Antibacterial activity against methicillin resistant Staphylococcus epidermidis clinical isolate assessed as susceptibility level by broth microdilution method; assay type: functional
[21] = test system: Staphylococcus aureus; test: Antibacterial activity against methicillin resistant Staphylococcus aureus clinical isolate assessed as susceptibility level by broth microdilution method; assay type: functional
[22] = test system: Enterococcus faecium; test: Antibacterial activity against vancomycin resistant Enterococcus faecium VanB clinical isolate by broth microdilution method; assay type: functional
[23] = test system: Enterococcus faecium; test: Antibacterial activity against vancomycin resistant Enterococcus faecium VanA clinical isolate by broth microdilution method; assay type: functional
[24] = test system: Enterococcus faecalis; test: Antibacterial activity against vancomycin resistant Enterococcus faecalis VanB clinical isolate by broth microdilution method; assay type: functional
[25] = test system: Streptococcus viridans; test: Antibacterial activity against Streptococcus viridans clinical isolate by broth microdilution method; assay type: functional
[26] = test system: Streptococcus constellatus; test: Antibacterial activity against Streptococcus constellatus clinical isolate by broth microdilution method; assay type: functional
[27] = test system: Streptococcus oralis; test: Antibacterial activity against Streptococcus oralis clinical isolate by broth microdilution method; assay type: functional
[28] = test system: Streptococcus intermedius; test: Antibacterial activity against Streptococcus intermedius clinical isolate by broth microdilution method; assay type: functional
[29] = test system: Streptococcus mitis; test: Antibacterial activity against Streptococcus mitis clinical isolate by broth microdilution method; assay type: functional
[30] = test system: Streptococcus agalactiae; test: Antibacterial activity against Streptococcus agalactiae group B clinical isolate by broth microdilution method; assay type: functional
[31] = test system: Streptococcus pneumoniae; test: Antibacterial activity against multidrug-resistant Streptococcus pneumoniae clinical isolate by broth microdilution method; assay type: functional
[32] = test system: Streptococcus pneumoniae; test: Antibacterial activity against penicillin resistant Streptococcus pneumoniae clinical isolate by broth microdilution method; assay type: functional
[33] = test system: Streptococcus pneumoniae; test: Antibacterial activity against penicillin intermediate Streptococcus pneumoniae clinical isolate by broth microdilution method; assay type: functional
[34] = test system: Staphylococcus saprophyticus; test: Antibacterial activity against methicillin resistant coagulase-negative Staphylococcus saprophyticus clinical isolate by broth microdilution method; assay type: functional
[35] = Antibacterial activity against methicillin resistant coagulase-negative Staphylococcus hominis subsp. novobiosepticus clinical isolate by broth microdilution method; assay type: functional
[36] = test system: Staphylococcus haemolyticus; test: Antibacterial activity against methicillin resistant coagulase-negative Staphylococcus haemolyticus clinical isolate by broth microdilution method; assay type: functional
[37] = test system: Staphylococcus capitis; test: Antibacterial activity against methicillin resistant coagulase-negative Staphylococcus capitis clinical isolate by broth microdilution method; assay type: functional
[38] = test system: Staphylococcus auricularis; test: Antibacterial activity against methicillin resistant coagulase-negative Staphylococcus auricularis clinical isolate by broth microdilution method; assay type: functional
[39] = test system: Staphylococcus epidermidis; test: Antibacterial activity against methicillin resistant Staphylococcus epidermidis clinical isolate by broth microdilution method; assay type: functional
[40] = test system: Staphylococcus aureus; test: Antibacterial activity against methicillin resistant Staphylococcus aureus clinical isolate by broth microdilution method; assay type: functional
[41] = test system: Enterococcus faecalis

Structure (SMILES): CC(=O)NC[C@H]1CN(c2ccc(N3CCOCC3)c(F)c2)C(=O)O1 [LINEZOLID]
- MIC [1]: 1 µg/mL (≈ 2.96 µM)
- MIC [2]: 1 µg/mL (≈ 2.96 µM)
- MIC [3]: 2 µg/mL (≈ 5.93 µM)
- Activity [4]: 96%
- Activity [5]: 99%
- Activity [6]: 100%
- Activity [7]: 100%
- Activity [8]: 100%
- Activity [9]: 100%
- Activity [10]: 100%
- Activity [11]: 100%
- Activity [12]: 100%
- Activity [13]: 98%
- Activity [14]: 100%
- Activity [15]: 100%
- Activity [16]: 100%
- Activity [17]: 100%
- Activity [18]: 100%
- Activity [19]: 100%
- Activity [20]: 100%
- Activity [21]: 99%
- MIC50 [22]: 2 µg/mL (≈ 5.93 µM)
- MIC90 [22]: 2 µg/mL (≈ 5.93 µM)
- MIC50 [23]: 2 µg/mL (≈ 5.93 µM)
- MIC90 [23]: 2 µg/mL (≈ 5.93 µM)
- MIC [24]: 0.5 µg/mL (≈ 1.48 µM)
- MIC [25]: 0.5 µg/mL (≈ 1.48 µM)
- MIC50 [25]: inactive
- MIC90 [25]: inactive
- MIC [26]: 0.5 µg/mL (≈ 1.48 µM)
- MIC50 [26]: inactive
- MIC90 [26]: inactive
- MIC [27]: 0.5 µg/mL (≈ 1.48 µM)
- MIC50 [27]: inactive
- MIC90 [27]: inactive
- MIC [28]: 0.5 µg/mL (≈ 1.48 µM)
- MIC50 [28]: inactive
- MIC90 [28]: inactive
- MIC [29]: 0.5 µg/mL (≈ 1.48 µM)
- MIC50 [29]: inactive
- MIC90 [29]: inactive
- MIC50 [30]: 1 µg/mL (≈ 2.96 µM)
- MIC90 [30]: 1 µg/mL (≈ 2.96 µM)
- MIC50 [31]: 1 µg/mL (≈ 2.96 µM)
- MIC90 [31]: 1 µg/mL (≈ 2.96 µM)
- MIC50 [32]: 1 µg/mL (≈ 2.96 µM)
- MIC90 [32]: 1 µg/mL (≈ 2.96 µM)
- MIC50 [33]: 1 µg/mL (≈ 2.96 µM)
- MIC90 [33]: 1 µg/mL (≈ 2.96 µM)
- MIC50 [34]: 1 µg/mL (≈ 2.96 µM)
- MIC90 [34]: 2 µg/mL (≈ 5.93 µM)
- MIC50 [35]: 1 µg/mL (≈ 2.96 µM)
- MIC90 [35]: 2 µg/mL (≈ 5.93 µM)
- MIC50 [36]: 1 µg/mL (≈ 2.96 µM)
- MIC90 [36]: 2 µg/mL (≈ 5.93 µM)
- MIC50 [37]: 1 µg/mL (≈ 2.96 µM)
- MIC90 [37]: 2 µg/mL (≈ 5.93 µM)
- MIC50 [38]: 1 µg/mL (≈ 2.96 µM)
- MIC90 [38]: 2 µg/mL (≈ 5.93 µM)
- MIC50 [39]: 1 µg/mL (≈ 2.96 µM)
- MIC90 [39]: 1 µg/mL (≈ 2.96 µM)
- Activity [40]: 99%
- MIC50 ([40]; Staphylococcus aureus): 2 µg/mL (≈ 5.93 µM)
- MIC90 ([40]; Staphylococcus aureus): 4 µg/mL (≈ 11.9 µM)
- MIC50 [41]: inactive
- MIC90 [41]: inactive
